{"source": "patent US8962600B2", "about": "“Neuroprotective compounds and their use” (The Medical College of Wisconsin, Inc., priority 2009, dated 2015)", "key": {"[1]": {"test_system": "dopaminergic neurons in substantia nigra", "experiment": "FLUORO-JADE B and tyrosine hydroxylase double labeling in substantia nigra", "assay_type": "in vivo, C57BL/6 mice", "conditions": "MPTP- and diapocynin-treated mice; 7 days after final MPTP injection", "protocol": "Six- to 8-week-old C57BL/6 mice weighing 24 to 28 g were housed in standard conditions of constant temperature (22±1° C.), humidity (relative, 30%), and a 12-h light/dark cycle. Mice were allowed free access to food and water. Use of the animals and protocol procedures were approved and supervised by the Committee on Animal Care at Iowa State University (Ames, Iowa). For neurodegeneration studies, mice either received diapocynin (300 mg/kg dose) by oral gavage for 1 day (pre-treatment before MPTP administration), 5 days (co-treatment with MPTP), or 7 days (post-treatment after MPTP).\nFLUORO-JADE B® and tyrosine hydroxylase (TH) double-labeling was performed in substantia nigra sections, as described previously (58). In brief, 7 days after the final MPTP injection, mice were sacrificed and perfused with 4% PFA and post-fixed with PFA and 30% sucrose, respectively. Fixed brains were cut into 30 μm sections and kept in 30% sucrose-ethylene glycol solutions at −20° C. On the day of staining, sections were rinsed with PBS and incubated with anti-TH antibody (Millipore, mouse monoclonal, dilution 1;1600) followed by Alexa Fluor 568 donkey anti-mouse secondary antibody (Invitrogen). […] Sections were viewed under a Nikon inverted fluorescence microscope (model TE-2000U). […]"}, "mouse primary microglia": {"test_system": "mouse primary microglia", "experiment": "LPS-induced iNOS activation (nitrite, Griess reagent) in primary microglia", "assay_type": "cell-based", "conditions": "diapocynin 10 μM, 30 min pretreatment, LPS 24 hr", "protocol": "(§1) Primary microglia were obtained from 1-2 day old C57/b16 mouse pups. Upon collection, whole brains were kept in ice-cold DMEM-F12 medium containing 10% FBS, 1× sodium pyruvate, 1× NEAAs, 100 units pen/strep, and Q. After collection, the brains were placed in 0.25% trypsin-EDTA and incubated at 37° C., with gentle shaking every 5-10 min. After 30 min, the trypsin was removed, and the brains are washed in warmed medium twice. After washing, medium was added to the brains, and the brains were homogenized using gentle pipetting, starting with a 25 ml pipette and moving to smaller pipette tips as the brains were broken up. When the brains were sufficiently homogenized to a single-cell suspension, they were filtered with a 70 μm nylon filter, which allowed microglia and astrocytes to be collected. The resultant cell suspension was plated in T-75 flasks and allowed to grow for 12-14 days at 37° C., 5% CO2. Microglia were collected using an Easy Sep Magnet (Stemcell Technologies, Vancouver, BC, Canada) (68-69) and plated on poly-D-lysine-coated plates and allowed to attach for 2-4 days before treatment.\nInducible nitric oxide synthase (iNOS or NOS2) activation was assessed by measuring nitrite levels using Griess reagent in a 96-well format (70-72). […] The plate was shaken on a plate shaker for 10 min before being read in a plate reader at 540 nm."}, "IL-10": {"test_system": "IL-10", "experiment": "LPS-induced IL-10 release in primary microglia, LUMINEX immunoassay", "assay_type": "cell-based, mouse", "conditions": "diapocynin 10 μM, LPS 24 hr", "protocol": "as §1, with “Microglia were collected using an Easy Sep Magnet (Stemcell Technologies, Vancouver, BC, Canada) (68-69) and plated on poly-D-lysine-coated plates and allowed to attach for 2-4 days before treatment.” left out\nCytokine levels of BV2 and microglial cells treated with diapocynin were determined by LUMINEX® multiplex immunoassay. […]\nCytokine standards and controls were adjusted to 40 μl volume and the LUMINEX® Samples were run on a LUMINEX® 200 Total System and analyzed with Multiplex Analysis—LUMINEX® Software (Invitrogen, Carlsbad, Calif.)."}}, "data": [{"smiles": "COc1cc(C(C)=O)cc(-c2cc(C(C)=O)cc(OC)c2O)c1O", "note": "[diapocynin]", "values": [{"measurement": "FLUORO-JADE B-positive cells in substantia nigra", "setting": "[1]", "value": "fewer"}, {"measurement": "TH-positive cells in substantia nigra", "setting": "[1]", "value": "increases"}, {"measurement": "attenuating LPS-induced iNOS activation, compared with apocynin 100 μM", "setting": "mouse primary microglia", "value": "just as effective"}, {"measurement": "blocking LPS-induced release of IL-10", "setting": "IL-10", "value": "very effective"}]}]}
